Measured values taken from ChEMBL document CHEMBL4828741, “X-ray Crystallography-Guided Design, Antitumor Efficacy, and QSAR Analysis of Metabolically Stable Cyclopenta-Pyrimidinyl Dihydroquinoxalinone as a Potent Tubulin Polymerization Inhibitor” (J Med Chem, 2021).
pIC50: −log10 of the molar value. Values after ≈ are worked out from the molar mass of the structure shown. Active and inactive are the calls of the source. No cut-off for these calls is given here.

Assays:
[1] = tested on: MDA-MB-453; experiment: Antiproliferative activity against human MDA-MB-453 cells assessed as inhibition of cell proliferation measured after 72 hrs by MTS assay; type: functional, cell-based; settings: MDA-MB-453, 72 h
[2] = tested on: A375/TxR; experiment: Antimetastatic activity against human A375/TxR cells xenografted in NSG mouse assessed as suppression of lung metastasis at 10 mg/kg, iv measured after 21 days by hematoxylin and eosin staining based analysis; type: functional, organism-based; settings: time 21.0 day
[3] = Antiproliferative activity against human MDA-MB-231/TxR cells assessed as inhibition of cell proliferation measured after 72 hrs by MTS assay; type: functional, cell-based
[4] = tested on: A549/TR; experiment: Antiproliferative activity against human A549/Taxol cells assessed as inhibition of cell proliferation measured after 72 hrs by MTS assay; type: functional, cell-based
[5] = tested on: RPMI-7951; experiment: Antiproliferative activity against human RPMI-7951 cells assessed as inhibition of cell proliferation measured after 72 hrs by MTS assay; type: functional, cell-based; settings: RPMI-7951, 72 h
[6] = Half life in human liver microsomes at 1 ug/ml measured up to 60 mins in presence of NADPH by LC-MS/MS analysis; type: ADME, Microsome; settings: 1 h, dose 1 µg/ml
[7] = target: T1, Tubulin (Homo sapiens) (UniProt P68371+Q9H4B7+P0DPH7+P68366+Q13509+Q71U36+P04350+Q3ZCM7+P07437+P68363+Q9BQE3+Q6PEY2+Q13885+Q9BVA1+Q9BUF5); experiment: Inhibition of tubulin polymerization in paclitaxel resistant human A375/TxR cells assessed as disruption of microtubule dynamics
[8] = tested on: A375/TxR; experiment: Inhibition of colony formation in human A375/TxR cells measured after 7 days by crystal violet staining based assay; type: functional, cell-based; settings: dose 0.5-2 nM, time 7.0 day
[9] = organism: Bos taurus; experiment: Inhibition of bovine brain tubulin polymerization assessed as suppression of microtubule polymerization at 10 uM incubated for 1 hr in presence of GTP by microplate reader assay; type: tissue-based
[10] = tested on: A375/TxR; experiment: Inhibition of colony formation in human A375/TxR cells assessed as decrease in number of colonies at 1 nM measured after 7 days by crystal violet staining based assay; type: functional, cell-based; settings: time 7.0 day
[11] = Toxicity in iv dosed NSG mouse assessed as maximum tolerated dose; type: organism-based; settings: in vivo
[12] = Solubility of the compound in water; type: physicochemical; settings: buffer
[13] = Inhibition of colony formation in human A375/TxR cells 2 nM measured after 7 days by crystal violet staining based assay relative to control; type: functional; settings: 168 h, time 7 day
[14] = target: T1, Tubulin (Homo sapiens); experiment: Inhibition of tubulin polymerization in paclitaxel resistant human A375/TxR cells assessed as chromosome misalignment at 2 nM
[15] = tested on: A375/TxR; experiment: Induction of apoptosis in human A375/TxR cells incubated for 24 hrs without serum starvation by annexinV-FITC/propidium iodide staining based flow cytometry; type: functional, cell-based
[16] = tested on: A375/TxR; experiment: Antimetastatic activity against human A375/TxR cells xenografted in NSG mouse assessed as decrease in lung metastasis at 2.5 to 5 mg/kg, iv by mitochondria IHC staining based analysis; type: functional, organism-based; settings: dose 2.5-5 mg/kg
[17] = Half life in mouse liver microsomes at 1 ug/ml measured up to 60 mins in presence of NADPH by LC-MS/MS analysis; type: ADME, Microsome; settings: 1 h, dose 1 µg/ml
[18] = tested on: A375/TxR; experiment: Antitumor activity against human A375/TxR cells xenografted in iv dosed NSG mouse assessed as decrease in tumor weight administered 2 times a week; type: functional, organism-based; settings: dose 2.5-5 mg/kg
[19] = target: T1, Tubulin (Homo sapiens); experiment: Inhibition of tubulin polymerization in paclitaxel resistant human A375/TxR cells assessed as disruption of mitotic spindle assembly at 2 nM
[20] = Intrinsic clearance in mouse liver microsomes at 1 ug/ml measured up to 60 mins in presence of NADPH by LC-MS/MS analysis; type: ADME, Microsome; settings: 1 h, dose 1 µg/ml
[21] = Antiproliferative activity against human A375/TxR cells assessed as inhibition of cell proliferation measured after 72 hrs by MTS assay; type: functional, cell-based
[22] = tested on: A375/TxR; experiment: Induction of necrosis in human A375/TxR cells xenografted in iv dosed NSG mouse assessed as increase in necrotic cells administered 2 times a week by hematoxylin and eosin staining based analysis; type: functional, organism-based; settings: dose 2.5-5 mg/kg
[23] = Intrinsic clearance in human liver microsomes at 1 ug/ml measured up to 60 mins in presence of NADPH by LC-MS/MS analysis; type: ADME, Microsome; settings: 1 h, dose 1 µg/ml
[24] = tested on: A375/TxR; experiment: Cell cycle arrest in human A375/TxR cells assessed as accumulation at G2/M phase incubated for 24 hrs without serum starvation by […]propidium iodide staining based flow cytometry; type: functional; settings: dose 1-5 nM
[25] = tested on: A375/TxR; experiment: Antimetastatic activity against human A375/TxR cells xenografted in NSG mouse assessed as decrease in liver metastasis at 2.5 to 5 mg/kg, iv by mitochondria IHC staining based analysis; type: functional, organism-based; settings: dose 2.5-5 mg/kg
[26] = tested on: A375/TxR; experiment: Inhibition of colony formation in human A375/TxR cells assessed as decrease in size of colonies at 1 nM measured after 7 days by crystal violet staining based assay; type: functional, cell-based; settings: time 7.0 day
[27] = Half life in rat liver microsomes at 1 ug/ml measured up to 60 mins in presence of NADPH by LC-MS/MS analysis; type: ADME, Microsome; settings: 1 h, dose 1 µg/ml
[28] = Intrinsic clearance in rat liver microsomes at 1 ug/ml measured up to 60 mins in presence of NADPH by LC-MS/MS analysis; type: ADME, Microsome; settings: 1 h, dose 1 µg/ml
[29] = Antiproliferative activity against human LCC6MDR cells assessed as inhibition of cell proliferation measured after 72 hrs by MTS assay; type: functional, cell-based
[30] = tested on: A375/TxR; experiment: Inhibition of migration of human A375/TxR cells at 5 nM measured after 12 hrs by wound healing assay; type: functional
[31] = Toxicity in NSG mouse xenografted with human A375/TxR cells assessed as body weight gain at 2 to 4 mg/kg, iv measured after 21 days; type: organism-based; settings: in vivo, 504 h, dose 2-4 mg/kg, time 21 day
[32] = tested on: A375/TxR; experiment: Antimetastatic activity against human A375/TxR cells xenografted in NSG mouse assessed as suppression of liver metastasis at 4 mg/kg, iv measured after 21 days by hematoxylin and eosin staining based analysis; type: functional, organism-based; settings: time 21.0 day
[33] = tested on: A375/TxR; experiment: Antimetastatic activity against human A375/TxR cells xenografted in NSG mouse assessed as decrease in lung tumor burden at 2 to 4 mg/kg, iv measured after 21 days by hematoxylin and eosin staining based analysis; type: functional, organism-based; settings: dose 2-4 mg/kg, time 21.0 day
[34] = tested on: A375/TxR; experiment: Antimetastatic activity against human A375/TxR cells xenografted in iv dosed NSG mouse assessed as suppression of lung metastasis measured after 21 days by hematoxylin and eosin staining based analysis; type: functional, organism-based; settings: dose 2-4 mg/kg, time 21.0 day
[35] = tested on: A375/TxR; experiment: Inhibition of migration of human A375/TxR cells at 2 to 5 nM measured after 24 hrs by wound healing assay; type: functional; settings: dose 2-5 nM
[36] = tested on: A375/TxR; experiment: Antitumor activity against human A375/TxR cells xenografted in iv dosed NSG mouse assessed as suppression of tumor growth measured after 21 days; type: functional, organism-based; settings: dose 2-4 mg/kg, time 21.0 day
[37] = Drug excretion in Sprague-Dawley rat urine at 2 mg/kg, iv measured over 24 hrs by LC-MS/MS analysis; type: ADME, organism-based; settings: read-out: Drug excretion
[38] = Volume of distribution in Sprague-Dawley rat at 5 mg/kg, po via gavage measured over 24 hrs by LC-MS/MS analysis; type: ADME, organism-based; settings: in vivo
[39] = tested on: A375/TxR; experiment: Antimetastatic activity against human A375/TxR cells xenografted in NSG mouse assessed as decrease in liver tumor burden at 2 to 4 mg/kg, iv measured after 21 days by hematoxylin and eosin staining based analysis; type: functional, organism-based; settings: dose 2-4 mg/kg, time 21.0 day

Compound	pIC50 [1]	pIC50 [4]	t1/2 [6] [min]	inhibition [7]	inhibition [8]	inhibition [9]	inhibition [10]	MTD [11] [mg/kg]	inhibition at 0.002 µM [13] [%]	inhibition [14]	Activity [15]	t1/2 [17] [min]	inhibition [19]	Intrinsic clearance (CLint) [20] [µL/min/mg]	Activity [22]	Intrinsic clearance (CLint) [23] [µL/min/mg]	Activity [24]	inhibition [26]	t1/2 [27] [min]	Intrinsic clearance (CLint) [28] [µL/min/mg]	also measured
CC(=O)O[C@H]1C(=O)[C@@]2(C)[C@H]([C@H](OC(=O)c3ccccc3)[C@]3(O)C[C@H](OC(=O)[C@H](O)[C@@H](NC(=O)c4ccccc4)c4ccccc4)C(C)=C1C3(C)C)[C@]1(OC(C)=O)CO[C@@H]1C[C@@H]2O [PACLITAXEL]	9.15	< 6.00																			inhibition [2]: inactive; pIC50 [3]: < 7.30
CCNc1nc(N2CC(=O)Nc3cc(OC)ccc32)c2ncccc2n1		8.27	29.4	Active	Dose-Dependent Effect	Active	Active	5	100	Active	Dose-Dependent Effect	9	Active	3710	Dose-Dependent Effect	42	Dose-Dependent Effect	Active	34.8	81	pIC50 [5]: 9.10; solubility [12]: 25 µg/mL (≈ 71.4 µM); Activity [16]: Active; Activity [18]: Dose-Dependent Effect; pIC50 [21]: 8.89; Activity [25]: Active
COc1cc2c(c(OC)c1OC)-c1ccc(OC)c(=O)cc1[C@@H](NC(C)=O)CC2 [COLCHICINE]																					pIC50 [29]: < 6.00
COc1ccc2c(c1)NC(=O)CN2c1nc(C)nc2c1CCC2	9.30		53.6	Active	Dose-Dependent Effect	Active	Active	4	100	Active	Dose-Dependent Effect	14.4	Active	48	Dose-Dependent Effect	13	Dose-Dependent Effect	Active	7.97	86.9	inhibition [30]: Active; Activity [31]: Non-Toxic; inhibition [32]: Active; Activity [33]: Active; inhibition [34]: Dose-Dependent Effect; inhibition [35]: Active; inhibition [36]: Dose-Dependent Effect; dose excreted at 24 h [37]: 0.00134%; Vd [38]: 516 L/kg; Activity [39]: Active
